Measured values: patent publication US20250066372A1, “HETEROCYCLIC COMPOUNDS, COMPOSITIONS THEREOF, AND METHODS OF TREATMENT THEREWITH” (BeiGene, Ltd., priority 2022, published 2025)

Biological target: CDK4/Cyclin D1 (Homo sapiens (Human), UniProt P11802)
Assay: CDK4/Cyclin D1 biochemical assay (TR-FRET)
Conditions: 1 mM ATP, 0.15 μM Rb (Ser780)-biotin substrate

CDK4/Cyclin D1, sequence (P11802 whole entry): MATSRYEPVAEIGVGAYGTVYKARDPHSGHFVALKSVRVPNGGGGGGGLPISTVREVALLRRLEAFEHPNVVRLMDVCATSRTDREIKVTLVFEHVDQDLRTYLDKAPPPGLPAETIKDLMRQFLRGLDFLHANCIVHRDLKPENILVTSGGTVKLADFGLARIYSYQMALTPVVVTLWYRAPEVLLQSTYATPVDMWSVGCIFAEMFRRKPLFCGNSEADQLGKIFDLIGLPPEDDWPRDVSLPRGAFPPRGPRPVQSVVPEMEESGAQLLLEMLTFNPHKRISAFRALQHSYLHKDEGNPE
CDK4/Cyclin D1, sequence (P24385 whole entry partner): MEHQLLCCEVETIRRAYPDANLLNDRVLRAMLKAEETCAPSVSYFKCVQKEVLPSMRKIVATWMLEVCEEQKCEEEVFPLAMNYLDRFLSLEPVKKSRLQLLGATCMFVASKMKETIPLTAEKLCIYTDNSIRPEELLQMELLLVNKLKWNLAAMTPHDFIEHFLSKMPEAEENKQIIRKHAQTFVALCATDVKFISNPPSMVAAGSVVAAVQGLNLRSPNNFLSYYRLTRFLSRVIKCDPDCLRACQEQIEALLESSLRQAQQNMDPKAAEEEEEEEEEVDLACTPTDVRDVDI

| IC50 | SMILES |
| --- | --- |
| 68 nM | CN(C)C(=O)c1cc2cnc(N[C@@H]3CCOC[C@H]3O)nc2n1C1CCCC1 [Example 1, 7-cyclopentyl-2-(((3S,4R)-3-hydroxytetrahydro-2H-pyran-4-yl)amino)-N,N-dimethyl-7H-pyrrolo[2,3-d]pyrimidine-6-carboxamide] |
| 8.8 nM | CC(=O)c1c(C)c2cnc(N[C@@H]3CCOC[C@H]3O)nc2n(C2CCCC2)c1=O [Example 2 in WO2020212865, reference compound] |
| 360 nM | Cc1ccc(-n2c(C(=O)N(C)C)cc3cnc(N[C@@H]4CCOC[C@H]4O)nc32)cc1 [Example 2, 2-(((3S,4R)-3-hydroxytetrahydro-2H-pyran-4-yl)amino)-N,N-dimethyl-7-(p-tolyl)-7H-pyrrolo[2,3-d]pyrimidine-6-carboxamide] |
| 72 nM | CN(C)Cc1ccc(-n2c(C(=O)N(C)C)cc3cnc(N[C@@H]4CCOC[C@H]4O)nc32)cc1 [Example 3, 7-(4-((dimethylamino)methyl)phenyl)-2-(((3S,4R)-3-hydroxytetrahydro-2H-pyran-4-yl)amino)-N,N-dimethyl-7H-pyrrolo[2,3-d]pyrimidine-6-carboxamide] |
| 9.7 nM | CN(C)Cc1ccc(-n2c(C(=O)N(C)C)cc3cnc(N[C@@H]4CCOC[C@H]4O)nc32)cc1C1CC1 [Example 4, 7-(3-cyclopropyl-4-((dimethylamino)methyl)phenyl)-2-(((3S,4R)-3-hydroxytetrahydro-2H-pyran-4-yl)amino)-N,N-dimethyl-7H-pyrrolo[2,3-d]pyrimidine-6-carboxamide] |
| 51 nM | CN(C)Cc1ccc(-n2c(C(=O)N(C)C)cc3cnc(N[C@@H]4CCOC[C@H]4O)nc32)cc1F [Example 5, 7-(4-((dimethylamino)methyl)-3-fluorophenyl)-2-(((3S,4R)-3-hydroxytetrahydro-2H-pyran-4-yl)amino)-N,N-dimethyl-7H-pyrrolo[2,3-d]pyrimidine-6-carboxamide] |
| 22 nM | CN(C)Cc1ccc(-n2c(C(=O)N(C)C)cc3cnc(N[C@@H]4CCOC[C@H]4O)nc32)cc1Cl [Example 6, 7-(3-chloro-4-((dimethylamino)methyl)phenyl)-2-(((3S,4R)-3-hydroxytetrahydro-2H-pyran-4-yl)amino)-N,N-dimethyl-7H-pyrrolo[2,3-d]pyrimidine-6-carboxamide] |
| 5.9 nM | CN(C)Cc1ccc(-n2c(C(=O)N(C)C)cc3cnc(N[C@@H]4CCOC[C@H]4O)nc32)cc1C(F)(F)F [Example 7, 7-(4-((dimethylamino)methyl)-3-(trifluoromethyl)phenyl)-2-(((3S,4R)-3-hydroxytetrahydro-2H-pyran-4-yl)amino)-N,N-dimethyl-7H-pyrrolo[2,3-d]pyrimidine-6-carboxamide] |
| 143 nM | CN1CCc2cc(-n3c(C(=O)N(C)C)cc4cnc(N[C@@H]5CCOC[C@H]5O)nc43)ccc2C1 [Example 8, 2-(((3S,4R)-3-hydroxytetrahydro-2H-pyran-4-yl)amino)-N,N-dimethyl-7-(2-methyl-1,2,3,4-tetrahydroisoquinolin-6-yl)-7H-pyrrolo[2,3-d]pyrimidine-6-carboxamide] |
| 12 nM | CN(C)C(=O)c1cc2cnc(N[C@@H]3CCOC[C@H]3O)nc2n1-c1ccc2c(c1)CCCC2N(C)C (stereo partly drawn) [Example 9, 7-(5-(dimethylamino)-5,6,7,8-tetrahydronaphthalen-2-yl)-2-(((3S,4R)-3-hydroxytetrahydro-2H-pyran-4-yl)amino)-N,N-dimethyl-7H-pyrrolo[2,3-d]pyrimidine-6-carboxamide] |
| 13 nM | CN(C)C(=O)c1cc2cnc(N[C@@H]3CCOC[C@H]3O)nc2n1-c1ccc2c(c1)C1(CCC2N(C)C)CC1 (stereo partly drawn) [Example 10, 7-(4′-(dimethylamino)-3′,4′-dihydro-2′H-spiro[cyclopropane-1,1′-naphthalen]-7′-yl)-2-(((3S,4R)-3-hydroxytetrahydro-2H-pyran-4-yl)amino)-N,N-dimethyl-7H-pyrrolo[2,3-d]pyrimidine-6-carboxamide] |
| 2.1 nM | CN(C)C(=O)c1cc2cnc(N[C@@H]3CCOC[C@H]3O)nc2n1-c1ccc2c(c1)C(F)(F)CCC2N(C)C (stereo partly drawn) [Example 11, 7-(5-(dimethylamino)-8,8-difluoro-5,6,7,8-tetrahydronaphthalen-2-yl)-2-(((3S,4R)-3-hydroxytetrahydro-2H-pyran-4-yl)amino)-N,N-dimethyl-7H-pyrrolo[2,3-d]pyrimidine-6-carboxamide] |
| 42 nM | CN(C)C(=O)c1cc2cnc(N[C@@H]3CCOC[C@H]3O)nc2n1-c1ccc2c(c1)CCC2N(C)C (stereo partly drawn) [Example 12, 7-(1-(dimethylamino)-2,3-dihydro-1H-inden-5-yl)-2-(((3S,4R)-3-hydroxytetrahydro-2H-pyran-4-yl)amino)-N,N-dimethyl-7H-pyrrolo[2,3-d]pyrimidine-6-carboxamide] |
| 38 nM | CN(C)C(=O)c1cc2cnc(N[C@@H]3CCOC[C@H]3O)nc2n1-c1ccc2c(c1)C1(CC1)CC2N(C)C (stereo partly drawn) [Example 13, 7-(3′-(dimethylamino)-2′,3′-dihydrospiro[cyclopropane-1,1′-inden]-6′-yl)-2-(((3S,4R)-3-hydroxytetrahydro-2H-pyran-4-yl)amino)-N,N-dimethyl-7H-pyrrolo[2,3-d]pyrimidine-6-carboxamide] |
| 5 nM | CC(C)n1c(C(C)(C)O)nc2c(F)cc(-c3nc(N[C@@H]4CCOC[C@H]4O)ncc3Cl)cc21 [Example A94 in WO2019207463, reference compound] |
